Earlier results, collected in EP0860164A1, “Cosmetic and dermatological composition for sun protection containing triazine derivates and butylenglycol diesters” (Beiersdorf Aktiengesellschaft, priority 1997, dated 1998).

Settings: maximum amount of the filter that known solvents (Bekannte Lösungsmittel) can dissolve

Löslichkeit in Lipiden: ≤ 15 Gew.-%
SMILES: CCCCC(CC)COC(=O)c1ccc(Nc2nc(Nc3ccc(C(=O)OCC(CC)CCCC)cc3)nc(Nc3ccc(C(=O)OCC(CC)CCCC)cc3)n2)cc1 (stereo not shown) [UVINUL® T 150, 4,4',4''-(1,3,5-Triazin-2,4,6-triyltriimino)-tris-benzoesäure-tris(2-ethylhexylester)]
